From patent US10059694B2, “2-aminopyrimidine compound and pharmaceutical composition and use thereof” (Shanghai Institute of Materia Medica, Chinese Academy of …, priority 2014, dated 2018)

What was measured:
[1] = test system: human epidermal carcinoma A431 cell line; assay: SRB proliferation assay, A431 cells; type: cell-based; details: A-431, SRB, 72 h, read-out: IC50 A431
Method in brief: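 A431 cells in log phase are allowed to adhere for 24 h, then exposed to compound for 72 h in triplicate alongside DMSO controls. Cells are fixed with cold 10% TCA, stained with SRB, dye is solubilised in 10 mM Tris pH 10.5, and OD is read at 515 nm.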

[2] = test system: phosphorylation of EGFR^wt in A431 cells; assay: Western blot, EGFR phosphorylation in A431 cells; type: cell-based, human; details: FIG. 2
Description: (§1) The tests were performed using conventional Western Blot (immunoblotting test), as follows. A certain number of A431 cells and NCI-H1975 cells in the logarithmic growth phase were inoculated on 6-well plate and adherent cultured overnight in the incubator. Replaced with serum-free medium and starved for 24 h, a certain concentration of compound was added and reacted for 2 h. 50 ng/mL of EGF stimulating factor was added and reacted for 10 min. The cells were lysed with lysate and samples were collected, and then the samples were taken for SDS-PAGE electrophoresis. After electrophoresis, the protein was transferred to a nitrocellulose membrane by a semi-dry transfer system. The nitrocellulose membrane was placed in a blocking solution (5% skimmed milk diluted with TBS containing 0.1% Tween 20) for 2 h at room temperature, and then incubated overnight at 4° C. in a primary antibody solution (diluted with TBS containing 0.1% Tween 20 by 1:500). It was washed for three times with TBS containing 0.1% Tween 20 for 15 min each time. The membrane was placed in a secondary antibody solution (horseradish peroxidase labeled goat anti-rabbit IgG, diluted with TBS containing 0.1% Tween 20 by 1:2000) and reacted for 1 h at room temperature. After washed for three times as above, the membrane was dyed with ECL plus reagent and photoed using image Quant LAS 4000 camera.

[3] = target: T1, EGFR^T790M/L858R (Homo sapiens, UniProt P00533, L858R/T790M); assay: kinase inhibitory activity test (ELISA), EGFR^T790M/L858R; type: biochemical
T1 construct: purchased Millipore
T1 sequence (P00533 25-1210 T790M/L858R): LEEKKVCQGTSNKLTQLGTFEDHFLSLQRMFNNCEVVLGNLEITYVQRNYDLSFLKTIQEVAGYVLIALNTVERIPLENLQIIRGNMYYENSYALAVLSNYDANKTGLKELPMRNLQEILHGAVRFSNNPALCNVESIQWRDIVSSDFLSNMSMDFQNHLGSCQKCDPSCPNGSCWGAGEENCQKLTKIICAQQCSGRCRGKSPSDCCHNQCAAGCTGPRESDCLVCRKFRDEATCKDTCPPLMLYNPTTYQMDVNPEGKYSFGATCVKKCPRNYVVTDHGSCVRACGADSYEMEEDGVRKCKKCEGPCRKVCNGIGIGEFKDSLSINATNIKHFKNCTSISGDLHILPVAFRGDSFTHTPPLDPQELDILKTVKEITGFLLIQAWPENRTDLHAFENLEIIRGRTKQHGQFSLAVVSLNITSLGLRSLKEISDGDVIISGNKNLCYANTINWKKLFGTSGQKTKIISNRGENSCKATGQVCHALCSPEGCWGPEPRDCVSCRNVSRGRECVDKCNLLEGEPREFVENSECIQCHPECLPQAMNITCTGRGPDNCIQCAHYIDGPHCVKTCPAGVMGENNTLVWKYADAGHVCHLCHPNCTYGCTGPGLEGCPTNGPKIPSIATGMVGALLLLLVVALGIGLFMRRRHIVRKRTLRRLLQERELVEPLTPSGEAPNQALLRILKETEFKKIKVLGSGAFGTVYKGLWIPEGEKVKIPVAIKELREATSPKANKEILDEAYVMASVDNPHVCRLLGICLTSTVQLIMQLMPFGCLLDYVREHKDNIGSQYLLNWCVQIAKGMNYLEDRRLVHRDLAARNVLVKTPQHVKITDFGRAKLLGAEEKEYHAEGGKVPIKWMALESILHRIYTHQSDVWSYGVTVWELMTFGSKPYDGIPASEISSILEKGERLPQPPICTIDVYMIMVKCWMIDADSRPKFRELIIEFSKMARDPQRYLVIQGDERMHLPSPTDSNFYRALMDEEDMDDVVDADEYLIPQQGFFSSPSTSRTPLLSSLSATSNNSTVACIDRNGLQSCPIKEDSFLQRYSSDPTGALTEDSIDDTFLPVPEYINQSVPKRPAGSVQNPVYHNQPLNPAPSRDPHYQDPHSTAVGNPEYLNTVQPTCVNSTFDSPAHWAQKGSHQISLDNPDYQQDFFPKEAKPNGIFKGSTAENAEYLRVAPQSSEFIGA
Method in brief: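 ELISA on poly(Glu,Tyr)4:1-coated plates; kinase reaction with 5 μM ATP (final) in 50 mM HEPES pH 7.4, 50 mM MgCl2, 5 mM MnCl2, 0.2 mM Na3VO4, 1 mM DTT, 1 h at 37° C. Phosphotyrosine detected via PY99/HRP and OPD at 490 nm; IC50 by four-parameter fit.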

[4] = test system: phosphorylation of EGFR^T790M/L858R, AKT and ERK in NCI-H1975 cells; assay: Western blot, EGFR phosphorylation and downstream signaling in NCI-H1975 cells; type: cell-based, human; details: FIG. 1
Description: as §1

For `C=CC(=O)Nc1cc(Nc2ncc(Cl)c(Nc3ccc4ccccc4c3)n2)c(OC)cc1N(C)CCN(C)C` [CCB120067, N-((5-((5-chloro-4-((naphthalen-2-yl)amino))pyrimidin-2-yl)amino)-2-((N-methyl-N-dimethylaminoethyl)amino)-4-methoxyphenyl)acrylamide], which IC50 [1] is on record?
Its IC50 is 134 nM.

And the “inhibitory activity on phosphorylation of EGFR^wt” value [2]?
Its value is “weaker”.

And the IC50 ([3]; ELISA, ATP 5 μM, 1 hour at 37° C.)?
The IC50 was 0.4 nM.

What about the “kinase inhibitory activity (in words)” value ([3]; summary of Table 1) of the same compound?
Its value is “potent”.

And the “inhibition of phosphorylation of EGFR^T790M/L858R and activation of AKT and ERK” value ([4]; 2 h compound, EGF 50 ng/mL 10 min)?
Its value is “significantly inhibit”.

And the “inhibitory activity on phosphorylated EGFR^T790M/L858R, Akt and Erk compared with CO1686” value ([4]; CCB120067 at 1 nM)?
The value was “comparable or slightly better than that of CO1686 at 100 nM concentration”.
